# According to US20220040183A1, “USE OF INHIBITORS OF STRESS GRANULE FORMATION FOR TARGETING THE REGULATION OF IMMUNE RESPONSES” (INSERM (Institut National de la Santé et de la Recherche …, priority 2018, published 2022):
# System: PD-1, LAG3 and TIM3 expression by CD3+ T cells
# Assay: Cell-based assay of immune checkpoint expression by T lymphocytes (flow cytometry)
# Set-up: species or system human
# Conditions: for PD-1, LAG3 and TIM3 expression by CD3+ T cells: PBMC activated with CD3/CD28 antibodies-coated beads, stimulated for 3 days, FIG. 4; for co-expression profile of PD-1, LAG3 and TIM3 immune checkpoint receptors on activated CD3+ T cells: healthy donors PBMC, FIG. 5, representative of n=6
# From the text: PBMC were obtained from human healthy donors (Etablissement Français du Sang, Toulouse, France) after Ficoll-Hypaque (GE Healthcare) density centrifugation and cultured in RPMI 1640 medium (ThermoFisher Scientific) supplemented with 10% fetal bovine serum (ThermoFisher Scientific) and L-glutamine (SIGMA Aldrich).
# Cell-Based Assay of Immune Checkpoint Expression by T Lymphocytes.
# PBMC isolated from healthy donors were activated with CD3/CD28 antibodies-coated beads (ThermoFisher Scientific). When drugs were used (A-92 (1 μM) or GSK2606414 (GSK, 10 μM)), they were added simultaneously to the stimulation. After 3 days of in vitro culture, cells were processed for qRT-PCR, immunoblotting or flow cytometry analysis.
SMILES,"PD-1, LAG3 and TIM3 expression by CD3+ T cells (A-92 1 μM)","co-expression profile of PD-1, LAG3 and TIM3 immune checkpoint receptors on activated CD3+ T cells (A-92 1 μM)","PD-1, LAG3 and TIM3 expression by CD3+ T cells (GSK2606414 10 μM)","co-expression profile of PD-1, LAG3 and TIM3 immune checkpoint receptors on activated CD3+ T cells (GSK2606414 10 μM)"
"c1nn(C2CCOCC2)cc1Nc1ncc2nnn(-c3ccc4cn[nH]c4c3)c2n1 [A-92, 3-(1H-indazol-6-yl)-N-[1-(oxan-4-yl)pyrazol-4-yl]triazolo[4,5-d]pyrimidin-5-amine]",impair immune checkpoints expression,impair immune checkpoints expression simultaneously,,
"Cn1cc(-c2ccc3c(c2)CCN3C(=O)Cc2cccc(C(F)(F)F)c2)c2c(N)ncnc21 [GSK2606414, 1-[5-(4-amino-7-methylpyrrolo[2,3-d]pyrimidin-5-yl)-2,3-dihydroindol-1-yl]-2-[3-(trifluoromethyl)phenyl]ethanone]",,,impair immune checkpoints expression,impair immune checkpoints expression simultaneously
